Legend:
HSF1 = conditions: cited from earlier work
NF-κB [1] = conditions: chemical or physiological inducers; cited from earlier work
[2] = test system: Human keratinocytes (HaCaT); experiment: HaCaT cell proliferation assay (viable cell count); format: cell-based; conditions: 48 hours after treatment
Description: (§1) Cell Lines and Treatments. Human keratinocytes (HaCaT) were grown routinely in DMEM supplemented with 10% FBS and 2 mM L-glutamine at 37° C. in a 5% CO2 humidified atmosphere. Human umbilical vein endothelial cells (HUVEC), obtained from Clonetics (San Diego, Calif., USA), were cultured in EGM medium (Clonetics, San Diego, Calif., USA) supplemented with 2% FBS, […], […] hydrocortisone, […] gentamicin, 3 mg/ml BBE (bovine brain extract) at 37° C. in a 5% CO2 humidified atmosphere.
Compounds. CTM-208 was dissolved in absolute ethanol or DMSO (0.1 M stock solution), stored at −20° C., and diluted in the culture medium immediately before use. Control cells received the same amount of DMSO diluent that had no effect on cell proliferation at the concentrations tested. Methotrexate was dissolved in DMSO. […]
Cell Proliferation Assay. […] At 48 hours after the addition of the compounds, cell proliferation was determined by counting the number of viable cells in a hemocytometer. Cell viability was determined by the Trypan blue vital dye exclusion technique. IC50 values on the increase in the number of cells over the number of seeded cells were calculated at 48 hours after treatment.
Effect of CTM-208 on human keratinocyte proliferation. […] At 48 hours after the addition of the compounds, cell proliferation was determined by counting the number of viable cells in a hemocytometer. […]

HSF [3] = experiment: EMSA of HSF induction in human keratinocytes; format: cell-based
human keratinocytes = experiment: LD50 in human keratinocytes; format: cell-based
Description: Cell Proliferation Assay. HaCaT cells (2.5×10^4 cells/well) were seeded in 24-well plates. After 24 hours, the medium was removed and the test compounds were added at different concentrations. At 48 hours after the addition of the compounds, cell proliferation was determined by counting the number of viable cells in a hemocytometer. Cell viability was determined by the Trypan blue vital dye exclusion technique. IC50 values on the increase in the number of cells over the number of seeded cells were calculated at 48 hours after treatment.

[4] = test system: human Burkitt lymphoma HS-Sultan cells; experiment: Annexin V staining apoptosis, HS-Sultan cells; format: cell-based
Description: (§2) Cell Culture and Treatments. Human breast cancer MDA-MB-231, human melanoma SK-MEL-28, and human Burkitt lymphoma HS-Sultan cell lines, obtained from ATCC (Manassas, Va.), were grown at 37° C. in 5% CO2 and 95% humidified air in cell culture medium containing 10% fetal calf serum, 2 mM glutamine and antibiotics ([…] penicillin and 0.1 mg/ml streptomycin) (Life Technologies, Inc.). Each compound to be assayed was dissolved in absolute ethanol and diluted in the culture medium immediately before use. Control cells received the same amount of ethanol diluent. Cells were incubated with the assay compound or control diluent for 8 hours, unless indicated otherwise. Cell viability was determined by vital-dye exclusion assay (Trypan blue, 0.1%).
(§3) Flow Cytometry. For Annexin V staining, cells were washed once with PBS and resuspended in staining buffer (10 mM HEPES pH 7.4, 140 mM NaCl, 2.5 mM CaCl) with […] of AnnexinV-PI (AnnexinV-FITC, Becton-Dickinson). After 15 minutes of incubation in the dark, cells were directly analyzed in a FACScan (Becton-Dickinson). Cells were evaluated with CellQuest Program (Becton-Dickinson). Data were plotted using a histogram algorithm, in which the intensities of Annexin V-positive cells were represented as percent of untreated control. Exemplary data obtained from human Burkitt lymphoma HS-Sultan cells and human melanoma SK-MEL-28 cells (24 hour incubation for SK-MEL-28 cells) are provided in FIGS. 1 and 2, respectively.
Electrophoretic Mobility Shift Assay (EMSA). […] Complexes were analyzed by nondenaturing 4% polyacrylamide gel electrophoresis. […] Quantitative evaluation of NF-κB-κB complex formation was determined by Typhoon-8600 Imager (Molecular Dynamics), using ImageQuant software (MDP analysis). […]

[5] = test system: human melanoma SK-MEL-28 cells; experiment: Annexin V staining apoptosis, SK-MEL-28 cells; format: cell-based; conditions: 24 hour incubation, in comparison to Cisplatin, Etoposide and Vinblastine, FIG. 2
Description: as §2
as §3, with “Exemplary data obtained from human Burkitt lymphoma HS-Sultan cells and human melanoma SK-MEL-28 cells (24 hour incubation for SK-MEL-28 cells) are provided in FIGS. 1 and 2, respectively.” left out

[6] = test system: human breast cancer MDA-MB-231 cells; experiment: DNA fragmentation (Cell-Death-Detection ELISA), MDA-MB-231 cells; format: cell-based; conditions: 5 μM, 48 hour incubation, FIG. 3
Description: as §2
DNA Fragmentation. Cytoplasmic histone-bound DNA fragments (mono- and oligo-nucleosomes) generated during apoptosis were measured by Cell-Death-Detection ELISA kit (Roche Diagnostics, Mannheim, Germany), according to the manufacturer's instructions. Histone-associated DNA fragments were quantified spectrophotometrically using antibodies against DNA and histones in a colorimetric assay. Enrichment in cytoplasmic nucleosomes was expressed as fold-induction of levels in untreated controls. […] At 5 μM CTM-208, apoptosis was increased more than 35-fold over the untreated control.

NF-κB [7] = experiment: EMSA of NF-κB DNA-binding activity in HS-Sultan cells; format: cell-based; conditions: Homo sapiens, FIG. 6
Description: as §2
Electrophoretic Mobility Shift Assay (EMSA). For nuclear extract preparation, cells (2×10^6 cells/sample) were lysed in hypotonic lysis buffer (10 mM NaCl, 3 mM MgCl2, 10 mM Tris-HCl pH 7.8, 0.5% NP40, 1 mM DTT) and then in high-salt extraction buffer (50 mM Tris-HCl, 400 mM NaCl, 1 mM EDTA, 1 mM EGTA, 1% Triton, 0.5% NP-40, 10% glycerol, 1 mM DTT, 1 mM PMSF, 0.5 μg/ml leupeptin, 0.7 μg/ml pepstatin, 0.2% aprotinin). […] Complexes were analyzed by nondenaturing 4% polyacrylamide gel electrophoresis. […] Quantitative evaluation of NF-κB-κB complex formation was determined by Typhoon-8600 Imager (Molecular Dynamics), using ImageQuant software (MDP analysis). […]

[8] = test system: Human endothelial cells (HUVEC); experiment: HUVEC DNA synthesis (BrdU incorporation); format: cell-based; conditions: 48 hours, read-out: IC50 endothelial cell proliferation (BrdU DNA synthesis)
Description: as §1
Compounds. CTM-208 was dissolved in absolute ethanol or DMSO (0.1 M stock solution), stored at −20° C., and diluted in the culture medium immediately before use. […]
DNA synthesis. […] DNA synthesis was evaluated by incorporation of 5-bromo-2-deoxy-uridine (BrdU) into cellular DNA 48 hours after the addition of the compounds. The amount of BrdU integrated into DNA was evaluated by using a monoclonal antibody against BrdU (cell proliferation ELISA colorimetric assay, Roche). Absorbance (l: 405 nm) was measured using a Victor microtiter plate reader (Wallac), and data were analyzed using the Allfit program.
Effect of CTM-208 on human endothelial cell proliferation. […] At 48 hours after the addition of the compounds, DNA synthesis was evaluated by incorporation of 5-bromo-2-deoxy-uridine (BrdU) into cellular DNA. […]

NF-κB [9] = experiment: EMSA of NF-κB DNA-binding activity in human keratinocytes; format: cell-based; conditions: Keratinocyte, read-out: NF-κB
Description: Electrophoretic Mobility Shift Assay (EMSA). For nuclear extract preparation, cells (2×10^6 cells/sample) were lysed in hypotonic lysis buffer (10 mM NaCl, 3 mM MgCl2, 10 mM Tris-HCl pH 7.8, 0.5% NP40, 1 mM DTT) and then in high-salt extraction buffer (50 mM Tris-HCl, 400 mM NaCl, 1 mM EDTA, 1 mM EGTA, 1% Triton, 0.5% NP-40, 10% glycerol, 1 mM DTT, 1 mM PMSF, 0.5 μg/ml leupeptin, 0.7 μg/ml pepstatin, 0.2% aprotinin). Equal amounts of protein (6 μg/sample) were incubated with ^32P-labeled κB-DNA probe followed by analysis of DNA-binding activity by EMSA. Binding reactions were performed as described (11). Complexes were analyzed by nondenaturing 4% polyacrylamide gel electrophoresis. Specificity of protein-DNA complexes was verified by immunoreactivity with polyclonal antibodies specific for the NF-κB subunit, p65/RelA. Quantitative evaluation of NF-κB-κB complex formation was determined by Typhoon-8600 Imager (Molecular Dynamics), using ImageQuant software (MDP analysis).

HSF [10] = experiment: EMSA of HSF induction in human endothelial cells; format: cell-based
NF-κB [11] = experiment: EMSA of NF-κB DNA-binding activity in human endothelial cells; format: cell-based; conditions: Endothelial cell
Description: as §1
Electrophoretic Mobility Shift Assay (EMSA). For nuclear extract preparation, cells (2×10^6 cells/sample) were lysed in hypotonic lysis buffer (10 mM NaCl, 3 mM MgCl2, 10 mM Tris-HCl pH 7.8, 0.5% NP40, 1 mM DTT) and then in high-salt extraction buffer (50 mM Tris-HCl, 400 mM NaCl, 1 mM EDTA, 1 mM EGTA, 1% Triton, 0.5% NP-40, 10% glycerol, 1 mM DTT, 1 mM PMSF, 0.5 μg/ml leupeptin, 0.7 μg/ml pepstatin, 0.2% aprotinin). Equal amounts of protein (6 μg/sample) were incubated with ^32P-labeled κB-DNA probe followed by analysis of DNA-binding activity by EMSA. Binding reactions were performed as described (11). Complexes were analyzed by nondenaturing 4% polyacrylamide gel electrophoresis. […] Quantitative evaluation of NF-κB-κB complex formation was determined by Typhoon-8600 Imager (Molecular Dynamics), using ImageQuant software (MDP analysis). […]

human endothelial cells = experiment: LD50 in human endothelial cells; format: cell-based

**Q.** With `O=C1C=CCC1` [cyclopent-2-en-1-one] as the compound, how does the “concentration able to activate HSF1 and trigger synthesis of HSP70” value (HSF1) read?
**A.** The value was 125 to 500 µM.

**Q.** What about the “concentration able to block NF-κB activation” value (NF-κB [1]) of the same compound?
**A.** The value was 125 to 500 µM.

**Q.** What does the source list for `CN(Cc1cnc2nc(N)nc(N)c2n1)c1ccc(C(=O)N[C@@H](CCC(=O)O)C(=O)O)cc1` [Methotrexate, reference compound]?
**A.** IC50 [2]: < 100 nM; concentration for HSF induction (HSF [3]): >400 µM; LD50 (human keratinocytes): >400 µM

**Q.** For `COC(=O)[C@H](CSC1CC(=O)/C(=C/c2ccccc2)CC1O[Si](C)(C)C(C)(C)C)NC(=O)OC(C)(C)C` (stereo partly drawn) [CTM-208, (R)-2-tert-Butoxycarbonylamino-3-[4E-benzylidene-2(tert-butyl-dimethylsilanyloxy)-5-oxo-cyclohexylsulfanyl]-propionic acid methyl ester], which apoptosis ([4]; 0.5 μM, 8 hour treatment) is on record?
**A.** Its apoptosis is “approximately 90%”.

**Q.** What about the “concentration at which induction of apoptosis starts to be effective” value ([4]; Annexin V-PI staining, FIG. 7) of the same compound?
**A.** The value was 0.1 µM.

**Q.** What about the “induction of apoptosis (Annexin V-positive cells)” value ([4]; in comparison to 15d-PGJ2, FIG. 1) of the same compound?
**A.** Its value is “potent inducer of apoptosis”.

**Q.** What about the “induction of apoptosis (Annexin V-positive cells)” value [5] of the same compound?
**A.** Its value is “potent inducer of apoptosis”.

**Q.** And the “apoptosis increase over untreated control (cytoplasmic nucleosome enrichment)” value [6]?
**A.** Its value is “more than 35 fold”.

**Q.** What about the IC50 (NF-κB [7]) of the same compound?
**A.** Its IC50 is 200 nM.

**Q.** What about the IC50 [2] of the same compound?
**A.** The IC50 was 2000 nM.

**Q.** And the IC50 [8]?
**A.** Its IC50 is 1600 nM.

**Q.** And the “concentration for HSF induction” value (HSF [3])?
**A.** Its value is 1.5 µM.

**Q.** And the IC50 (NF-κB [9])?
**A.** Its IC50 is 19 µM.

**Q.** And the LD50 (human keratinocytes)?
**A.** Its LD50 is 400 µM.

**Q.** What about the “effective concentration for HSF induction” value (HSF [10]) of the same compound?
**A.** Its value is <1 µM.

**Q.** What about the IC50 (NF-κB [11]) of the same compound?
**A.** The IC50 was 5 µM.

**Q.** And the LD50 (human endothelial cells)?
**A.** Its LD50 is >400 µM.

From US8367735B2, “Pharmaceutical compositions” (Crawford Healthcare Holdings Limited, priority 2006, dated 2013)
